Experimental data from patent US8575145B2, “Triazolopyridine compounds as PIM kinase inhibitors” (Array BioPharma Inc., priority 2008, dated 2013).
Structures can show the parent of a compound that is named as a salt.

Columns and labels:
[1] = test system: C57BL/6J mice immunized with hen egg lysozyme; test: B Cell in vivo Functional Assay (HEL-specific antibody isotypes); set-up: species or system mouse; details: 200 mg/kg oral once a day, Day 21, vs vehicle
Protocol: To determine the effect of a compound of Formula I on B cell responses, the following experiment was conducted. On Day O, C57BL/6J mice (Jackson Laboratories #000664, 6-8 weeks of age) were immunized at the base of the tail with 20 μg of hen egg lysozyme (HEL; Sigma #L7773) with complete Freund's adjuvant (CFA; Sigma #F5881). Mice were re-immunized on day 7 with 20 μg HEL in alum (Pierce catalog #77161). Starting on Day 0 and continuing through Day 28, mice were dosed once a day by oral administration with vehicle (water) or the compound of Example 26 (200 mg/kg). Serum was collected on days 0, 7, 14, 21, and 28 and analyzed for HEL-specific total IgG, IgG1, IgG2a, IgG2b, and IgG3 antibody production by capture ELISA (antibodies purchased from Invitrogen, catalog #M30007, #M32107, #M32307, #M32507, #M32607). ELISA plates were quantitated using Molecular Devices Versamax reader at […]. The group mean titer of each antibody analyte was converted to percent of vehicle control (=100%).

[2] = test system: C.B17/Icr-Prkdc^scid/IcrIcoCrl mice, adoptive transfer model of IBD; test: CD4+CD45RBhi Adoptive Transfer Inflammatory Bowel Disease; format: in vivo, mouse; details: 200 mg/kg oral twice daily, 21 days of treatment
Protocol: On Day 0, CD4+ T cells were isolated from the spleens of female Balb/cAnNCrl mice (Charles River Laboratories; 12 weeks old) as described in Example E. The resulting cells were labeled with fluorescent antibodies against CD4 and CD45 markers and were sorted by flow cytometry for CD4+CD45RBhi cells based on fluorescence. 400,000 CD4+CD45RBhi cells were then injected intraperitoneally into C.B17/Icr-Prkdc^scid/IcrIcoCrl mice (Charles River Laboratories strain code 236; 12 weeks old). This injection of cells is known to those skilled in the art as adoptive transfer. […]
For each H&E stained section, submucosal edema was quantitated by measuring the distance from the muscularis mucosa to the internal border of the outer muscle layer in a non-tangential area thought to most representative the severity of this change. Mucosal thickness was also measured in a non-tangential area of the section that best represented the overall mucosal thickness. […]
The parameters reflecting epithelial cell loss/damage were scored individually using a % area involved scoring method: […]
The three scored parameters (inflammation, glandular epithelial loss, and erosion) were ultimately summed to arrive at a sum of histopathology scores, which indicates the overall damage and would have a maximum score of 15.

## F[C@@H]1CNCCC1Oc1cccc2ccc(-c3nnc4ccccn34)nc12 (stereo in doubt) [Example 26, 2-([1,2,4]triazolo[4,3-a]pyridin-3-yl)-8-((cis)-3-fluoropiperidin-4-yloxy)quinoline dihydrochloride]
[1]
  HEL-specific IgG2a titer: decreased
  HEL-specific IgG2b titer: decreased
  HEL-specific IgG3 titer: decreased
[2]
  colon histopathology scores (inflammation, gland loss, erosion): reduced severity of disease
  decrease in mucosal thickening relative to vehicle: 84%
